Among the data in patent US11834453B2, “Substituted pyrimido[5,4-d]pyrimidines as HER2 inhibitors” (Array BioPharma Inc., priority 2020, dated 2023) are IC50 values, retold here.

By IC50 is commonly meant the point on the concentration scale where inhibition reaches its midpoint.

Chain of ErbB2 with Exon 20 YVMA insertion (HER2-YVMA) (P04626 other isoform, or with tags, fused parts or gaps ins YVMA behind 775): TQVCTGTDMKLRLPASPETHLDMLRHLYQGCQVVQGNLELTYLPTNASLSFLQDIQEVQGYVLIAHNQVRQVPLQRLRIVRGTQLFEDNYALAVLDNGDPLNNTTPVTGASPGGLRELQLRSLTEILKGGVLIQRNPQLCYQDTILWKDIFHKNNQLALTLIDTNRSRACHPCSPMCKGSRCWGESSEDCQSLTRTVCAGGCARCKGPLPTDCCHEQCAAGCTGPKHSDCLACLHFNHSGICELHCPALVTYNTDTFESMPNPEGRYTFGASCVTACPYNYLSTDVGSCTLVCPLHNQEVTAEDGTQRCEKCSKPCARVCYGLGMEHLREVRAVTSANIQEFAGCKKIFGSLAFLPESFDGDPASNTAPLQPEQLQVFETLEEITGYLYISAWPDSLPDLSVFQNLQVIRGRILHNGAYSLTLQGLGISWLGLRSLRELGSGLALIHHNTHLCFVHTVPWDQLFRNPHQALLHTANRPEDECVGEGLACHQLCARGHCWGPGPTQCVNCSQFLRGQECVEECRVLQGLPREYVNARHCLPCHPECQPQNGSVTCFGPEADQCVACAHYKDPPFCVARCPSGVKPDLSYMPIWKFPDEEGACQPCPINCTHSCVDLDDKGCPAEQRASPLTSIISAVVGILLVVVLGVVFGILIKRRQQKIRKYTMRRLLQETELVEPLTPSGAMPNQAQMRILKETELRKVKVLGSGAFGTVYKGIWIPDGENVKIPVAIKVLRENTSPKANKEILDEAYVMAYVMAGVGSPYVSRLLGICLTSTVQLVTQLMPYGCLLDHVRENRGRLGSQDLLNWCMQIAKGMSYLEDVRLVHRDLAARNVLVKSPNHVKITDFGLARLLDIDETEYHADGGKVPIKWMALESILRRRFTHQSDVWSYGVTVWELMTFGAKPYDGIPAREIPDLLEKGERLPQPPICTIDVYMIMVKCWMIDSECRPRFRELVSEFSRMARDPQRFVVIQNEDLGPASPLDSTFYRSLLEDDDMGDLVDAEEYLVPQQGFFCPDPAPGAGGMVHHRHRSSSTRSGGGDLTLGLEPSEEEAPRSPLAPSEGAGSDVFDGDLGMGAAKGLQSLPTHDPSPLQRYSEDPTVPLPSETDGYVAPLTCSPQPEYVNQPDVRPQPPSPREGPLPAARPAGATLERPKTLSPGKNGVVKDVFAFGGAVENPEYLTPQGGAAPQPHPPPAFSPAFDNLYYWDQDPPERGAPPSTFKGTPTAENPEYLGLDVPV
Chain of EGFR wild type (EGFR WT) (P00533 25-1210): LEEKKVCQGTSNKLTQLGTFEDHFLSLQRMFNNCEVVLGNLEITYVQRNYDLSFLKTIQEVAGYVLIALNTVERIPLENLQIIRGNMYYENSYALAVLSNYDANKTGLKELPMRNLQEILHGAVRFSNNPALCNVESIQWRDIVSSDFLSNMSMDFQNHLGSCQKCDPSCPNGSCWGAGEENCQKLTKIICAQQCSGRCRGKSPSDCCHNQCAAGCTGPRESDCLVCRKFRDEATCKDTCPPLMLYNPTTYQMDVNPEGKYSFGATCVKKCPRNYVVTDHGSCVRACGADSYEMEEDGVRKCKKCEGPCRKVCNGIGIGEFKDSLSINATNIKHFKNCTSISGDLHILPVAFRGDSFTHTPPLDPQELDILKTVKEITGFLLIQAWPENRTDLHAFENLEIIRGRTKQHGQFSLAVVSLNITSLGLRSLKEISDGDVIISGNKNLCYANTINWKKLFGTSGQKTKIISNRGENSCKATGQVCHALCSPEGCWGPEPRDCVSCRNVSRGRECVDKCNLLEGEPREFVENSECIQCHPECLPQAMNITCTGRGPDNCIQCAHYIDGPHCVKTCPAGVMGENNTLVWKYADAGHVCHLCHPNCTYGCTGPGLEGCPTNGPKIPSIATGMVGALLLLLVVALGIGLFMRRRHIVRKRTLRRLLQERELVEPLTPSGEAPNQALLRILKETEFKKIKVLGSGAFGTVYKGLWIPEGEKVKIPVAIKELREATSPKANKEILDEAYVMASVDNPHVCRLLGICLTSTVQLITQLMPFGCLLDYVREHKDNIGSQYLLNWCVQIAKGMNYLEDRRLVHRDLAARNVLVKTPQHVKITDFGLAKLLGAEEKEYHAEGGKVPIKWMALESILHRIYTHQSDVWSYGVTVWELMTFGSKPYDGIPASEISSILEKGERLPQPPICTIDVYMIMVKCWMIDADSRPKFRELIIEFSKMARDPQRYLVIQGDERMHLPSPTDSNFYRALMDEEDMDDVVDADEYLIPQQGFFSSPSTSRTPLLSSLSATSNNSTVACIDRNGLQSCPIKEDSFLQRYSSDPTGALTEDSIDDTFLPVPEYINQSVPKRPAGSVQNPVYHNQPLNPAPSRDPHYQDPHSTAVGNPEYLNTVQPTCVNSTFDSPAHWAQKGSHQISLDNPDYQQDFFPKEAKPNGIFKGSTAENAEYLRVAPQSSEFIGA
Chain of ErbB2 WT (P04626 23-1255): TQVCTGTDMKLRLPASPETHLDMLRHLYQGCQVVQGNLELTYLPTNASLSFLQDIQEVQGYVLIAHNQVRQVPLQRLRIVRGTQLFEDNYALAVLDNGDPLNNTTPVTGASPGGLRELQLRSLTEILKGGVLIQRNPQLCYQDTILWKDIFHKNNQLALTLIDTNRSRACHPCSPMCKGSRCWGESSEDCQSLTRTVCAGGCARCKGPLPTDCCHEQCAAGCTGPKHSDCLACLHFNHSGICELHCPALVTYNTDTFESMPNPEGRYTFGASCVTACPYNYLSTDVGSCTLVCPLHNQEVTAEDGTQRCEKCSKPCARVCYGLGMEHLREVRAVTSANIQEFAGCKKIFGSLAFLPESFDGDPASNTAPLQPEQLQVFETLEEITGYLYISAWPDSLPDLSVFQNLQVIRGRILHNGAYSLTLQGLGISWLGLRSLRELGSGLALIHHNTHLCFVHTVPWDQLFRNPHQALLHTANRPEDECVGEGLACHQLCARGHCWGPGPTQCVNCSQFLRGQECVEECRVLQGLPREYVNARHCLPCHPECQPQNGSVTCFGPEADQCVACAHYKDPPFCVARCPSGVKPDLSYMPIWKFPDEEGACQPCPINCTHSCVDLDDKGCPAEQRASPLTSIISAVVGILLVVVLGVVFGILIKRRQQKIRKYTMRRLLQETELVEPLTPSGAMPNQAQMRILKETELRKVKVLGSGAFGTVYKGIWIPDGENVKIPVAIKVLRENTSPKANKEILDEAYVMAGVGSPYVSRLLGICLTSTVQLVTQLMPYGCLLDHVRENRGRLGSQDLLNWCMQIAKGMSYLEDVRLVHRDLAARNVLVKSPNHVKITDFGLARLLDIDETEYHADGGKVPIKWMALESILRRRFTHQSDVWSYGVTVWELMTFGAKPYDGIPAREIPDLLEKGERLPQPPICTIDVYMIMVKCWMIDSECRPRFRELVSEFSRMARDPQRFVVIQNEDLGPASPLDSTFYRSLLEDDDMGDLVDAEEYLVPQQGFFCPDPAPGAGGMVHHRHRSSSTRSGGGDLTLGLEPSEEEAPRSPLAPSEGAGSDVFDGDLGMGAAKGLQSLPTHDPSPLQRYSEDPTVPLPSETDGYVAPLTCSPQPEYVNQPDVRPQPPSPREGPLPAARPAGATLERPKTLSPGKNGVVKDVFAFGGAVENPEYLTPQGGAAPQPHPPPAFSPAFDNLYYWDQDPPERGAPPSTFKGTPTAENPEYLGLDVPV

The first assay has as its target ErbB2 with Exon 20 YVMA insertion (HER2-YVMA) (Homo sapiens (Human), UniProt P04626, INS775YVMA). In words: Cellular phosphorylation assay, constitutive ErbB2 phosphorylation (Y1196) in engineered NIH 3T3 cells, Assay 4. The class given is cell-based.
Settings: not given
Summed up: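 Engineered NIH 3T3 cells expressing HER2-YVMA treated with compounds 1 h at 37 °C, then formaldehyde-fixed and methanol-permeabilized. pErbB2 Y1196 detected by in-cell infrared immunofluorescence, normalized to GAPDH. IC50 from the normalized curves.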
Turning to `Cc1c(Oc2ccn3ncnc3c2)ccc(Nc2ncnc3cnc(N4CC[C@](C)(O)C4)nc23)c1F` [Example 307], half-maximal inhibition (IC50) was put at 1150 nM.
The molecule `Cc1c(Oc2ccn3ncnc3c2)ccc(Nc2ncnc3cnc(N4CC[C@@](C)(O)C4)nc23)c1F` [Example 308] had an IC50 of 492 nM.
For `Cc1c(Oc2ccn3ncnc3c2)ccc(Nc2ncnc3cnc(N4CC[C@H]4C(C)(C)O)nc23)c1F` [Example 309], the IC50 was found to be 5000 nM.
Still for that read-out and setting: the same measure for `Cc1c(Oc2ccn3ncnc3c2)ccc(Nc2ncnc3cnc(N4CC[C@H](O)C4)nc23)c1F` [Example 311]: 3330 nM.
Turning to `Cc1c(Oc2ccn3ncnc3c2)ccc(Nc2ncnc3cnc(N4CC[C@@H](O)C4)nc23)c1F` [Example 312], the half-inhibitory concentration (IC50) was determined as 1590 nM.
Consider `Cc1c(Oc2ccn3ncnc3c2)ccc(Nc2ncnc3cnc(N(C)CC4(O)CC4)nc23)c1F` [Example 314], for which the 50% inhibitory concentration (IC50) came out at 2020 nM.
In turn, `Cc1c(Oc2ccn3ncnc3c2)ccc(Nc2ncnc3cnc(N(C)CC4(O)CCC4)nc23)c1F` [Example 315] yielded a half-maximal inhibitory concentration (IC50) of 1490 nM.
`Cc1c(Oc2ccn3ncnc3c2)ccc(Nc2ncnc3cnc(N4C[C@@H](O)C(F)(F)C4)nc23)c1F` [Example 316] had an IC50 of 1320 nM.
As to `Cc1c(Oc2ccn3ncnc3c2)ccc(Nc2ncnc3cnc(N(C)CC(F)F)nc23)c1F` [Example 317], the half-inhibitory concentration (IC50) is 402 nM.
`Cc1c(Oc2ccn3ncnc3c2)ccc(Nc2ncnc3cnc(N[C@H]4CNC[C@H]4F)nc23)c1F` [Example 318] showed an IC50 of 928 nM.
Same read-out and setting: the same measure for `Cc1c(Oc2ccn3ncnc3c2)ccc(Nc2ncnc3cnc(N(C)[C@H]4CN(C)C[C@H]4F)nc23)c1F` [Example 320]: 271 nM; for `COC[C@H]1CCN1c1ncc2ncnc(Nc3ccc(Oc4ccn5ncnc5c4)c(Cl)c3)c2n1` [Example 321]: 72 nM.

The target in a further assay is EGFR (Homo sapiens (Human), UniProt P00533). In words: ErbB enzyme assay (CisBio HTRF KinEASE-TK), Assay 3. The class given is biochemical.
Chain of EGFR (P00533 25-1210): as the sequence (P00533 25-1210) above
Settings: not given
Put shortly:
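Kinase + 250 nM biotin TK-substrate, 1 mM ATP, cpd (3-fold dil.), HEPES pH 7.4/10 mM MgCl2/0.01% Triton/2% DMSO; 30 min 22 °C. Quench w/ Sa-XL665 + TK-Ab-Cryptate, 1 h, HTRF. IC50 = 50 POC on 4PL fit.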
In turn, `Cc1c(Oc2ccn3ncnc3c2)ccc(Nc2ncnc3cnc(N4CC[C@](C)(O)C4)nc23)c1F` [Example 307] had a half-maximal inhibitory concentration (IC50) not below 10000 nM.
In turn, `Cc1c(Oc2ccn3ncnc3c2)ccc(Nc2ncnc3cnc(N4CC[C@@](C)(O)C4)nc23)c1F` [Example 308] displayed an IC50 not below 10000 nM.
In the case of `Cc1c(Oc2ccn3ncnc3c2)ccc(Nc2ncnc3cnc(N4CC[C@H]4C(C)(C)O)nc23)c1F` [Example 309], the IC50 was not below 10000 nM.
Regarding `Cc1c(Oc2ccn3ncnc3c2)ccc(Nc2ncnc3cnc(N4CC[C@H](O)C4)nc23)c1F` [Example 311], the IC50 is not below 10000 nM.
Same read-out and setting: with `Cc1c(Oc2ccn3ncnc3c2)ccc(Nc2ncnc3cnc(N4CC[C@@H](O)C4)nc23)c1F` [Example 312] the figure was not below 10000 nM; with `Cc1c(Oc2ccn3ncnc3c2)ccc(Nc2ncnc3cnc(N(C)CC4(O)CC4)nc23)c1F` [Example 314], 6080 nM.
The molecule `Cc1c(Oc2ccn3ncnc3c2)ccc(Nc2ncnc3cnc(N(C)CC4(O)CCC4)nc23)c1F` [Example 315] gave a 50% inhibitory concentration (IC50) of 3690 nM.
The same measure, in the same setting: the same measure for `Cc1c(Oc2ccn3ncnc3c2)ccc(Nc2ncnc3cnc(N4C[C@@H](O)C(F)(F)C4)nc23)c1F` [Example 316]: 5040 nM.
Turning to `Cc1c(Oc2ccn3ncnc3c2)ccc(Nc2ncnc3cnc(N(C)CC(F)F)nc23)c1F` [Example 317], the IC50 was not below 10000 nM.
Same read-out and setting: with `Cc1c(Oc2ccn3ncnc3c2)ccc(Nc2ncnc3cnc(N[C@H]4CNC[C@H]4F)nc23)c1F` [Example 318] the figure was 4330 nM.
Molecule `Cc1c(Oc2ccn3ncnc3c2)ccc(Nc2ncnc3cnc(N(C)[C@H]4CN(C)C[C@H]4F)nc23)c1F` [Example 320] gave a half-inhibitory concentration (IC50) of 2340 nM.
On the same count and under the same terms, the same measure for `COC[C@H]1CCN1c1ncc2ncnc(Nc3ccc(Oc4ccn5ncnc5c4)c(Cl)c3)c2n1` [Example 321]: 4340 nM.

The next assay concerns the target ErbB2 WT (Homo sapiens (Human), UniProt P04626). In words: ErbB enzyme assay (CisBio HTRF KinEASE-TK), Assay 2. The class given is biochemical.
Settings: not given
Put shortly: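 ErbB2 phosphorylates 250 nM biotin-TK substrate at 1 mM ATP in 25 mM HEPES pH 7.4, 10 mM MgCl2, 0.01% Triton X-100 and 2% DMSO, for 30 min at 22 °C. Product is detected by HTRF with Sa-XL665 and TK-Ab-Cryptate. Percent of control is set by DMSO-only wells and pre-quenched wells.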
(Time-resolved FRET reads energy transfer from a long-lived donor to a nearby acceptor.)
On to `Cc1c(Oc2ccn3ncnc3c2)ccc(Nc2ncnc3cnc(N4CC[C@](C)(O)C4)nc23)c1F` [Example 307], for which the midpoint of inhibition, the IC50, lay at 54.3 nM.
For `Cc1c(Oc2ccn3ncnc3c2)ccc(Nc2ncnc3cnc(N4CC[C@@](C)(O)C4)nc23)c1F` [Example 308], 28.8 nM corresponded to half-maximal inhibition (IC50).
On to `Cc1c(Oc2ccn3ncnc3c2)ccc(Nc2ncnc3cnc(N4CC[C@H]4C(C)(C)O)nc23)c1F` [Example 309], for which the concentration for half-maximal inhibition (IC50) came to 223 nM.
Consider `Cc1c(Oc2ccn3ncnc3c2)ccc(Nc2ncnc3cnc(N4CC[C@H](O)C4)nc23)c1F` [Example 311], for which the 50% inhibitory concentration (IC50) came out at 76.3 nM.
Still for that read-out and setting: the same measure for `Cc1c(Oc2ccn3ncnc3c2)ccc(Nc2ncnc3cnc(N4CC[C@@H](O)C4)nc23)c1F` [Example 312]: 54.2 nM; for `Cc1c(Oc2ccn3ncnc3c2)ccc(Nc2ncnc3cnc(N(C)CC4(O)CC4)nc23)c1F` [Example 314]: 88.1 nM; for `Cc1c(Oc2ccn3ncnc3c2)ccc(Nc2ncnc3cnc(N(C)CC4(O)CCC4)nc23)c1F` [Example 315]: 64.8 nM.
Take `Cc1c(Oc2ccn3ncnc3c2)ccc(Nc2ncnc3cnc(N4C[C@@H](O)C(F)(F)C4)nc23)c1F` [Example 316]: the concentration for half-maximal inhibition (IC50) was determined as 111 nM.
On the same count and under the same terms, the same measure for `Cc1c(Oc2ccn3ncnc3c2)ccc(Nc2ncnc3cnc(N(C)CC(F)F)nc23)c1F` [Example 317]: 101 nM.
`Cc1c(Oc2ccn3ncnc3c2)ccc(Nc2ncnc3cnc(N[C@H]4CNC[C@H]4F)nc23)c1F` [Example 318] had a 50% inhibitory concentration (IC50) of 88 nM.
The molecule `Cc1c(Oc2ccn3ncnc3c2)ccc(Nc2ncnc3cnc(N(C)[C@H]4CN(C)C[C@H]4F)nc23)c1F` [Example 320] came in with an IC50 of 36 nM.
The same measure, in the same setting: the same measure for `COC[C@H]1CCN1c1ncc2ncnc(Nc3ccc(Oc4ccn5ncnc5c4)c(Cl)c3)c2n1` [Example 321]: 65.7 nM.

A further assay addresses EGFR wild type (EGFR WT) (Homo sapiens (Human), UniProt P00533). In words: Cellular phosphorylation assay, EGF-stimulated EGFR phosphorylation in engineered NIH 3T3 cells, Phospho-EGFR DuoSet IC ELISA, Assay 5. It counts as cell-based.
Settings: not given
Put shortly: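 NIH 3T3 cells expressing EGFR WT (20,000/well, attached overnight) were exposed to serially diluted compound for 1 h at 37 °C, then stimulated with 100 ng/ml rEGF for 10 min. Phospho-EGFR in lysates measured by sandwich ELISA optical density; IC50 from curves.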
For orientation: An ELISA detects its analyte on a solid surface through an enzyme-linked reagent.
As to `Cc1c(Oc2ccn3ncnc3c2)ccc(Nc2ncnc3cnc(N4CC[C@](C)(O)C4)nc23)c1F` [Example 307], the IC50 is not below 5000 nM.
Molecule `Cc1c(Oc2ccn3ncnc3c2)ccc(Nc2ncnc3cnc(N4CC[C@@](C)(O)C4)nc23)c1F` [Example 308] returned a 50% inhibitory concentration (IC50) not below 5000 nM.
The same measure, in the same setting: the same measure for `Cc1c(Oc2ccn3ncnc3c2)ccc(Nc2ncnc3cnc(N4CC[C@H]4C(C)(C)O)nc23)c1F` [Example 309]: not below 5000 nM; for `Cc1c(Oc2ccn3ncnc3c2)ccc(Nc2ncnc3cnc(N4CC[C@H](O)C4)nc23)c1F` [Example 311]: not below 5000 nM.
With `Cc1c(Oc2ccn3ncnc3c2)ccc(Nc2ncnc3cnc(N4CC[C@@H](O)C4)nc23)c1F` [Example 312], the half-maximal inhibitory concentration (IC50) is not below 5000 nM.
The same measure, in the same setting: with `Cc1c(Oc2ccn3ncnc3c2)ccc(Nc2ncnc3cnc(N(C)CC4(O)CC4)nc23)c1F` [Example 314] the figure was not below 5000 nM; with `Cc1c(Oc2ccn3ncnc3c2)ccc(Nc2ncnc3cnc(N(C)CC4(O)CCC4)nc23)c1F` [Example 315], not below 5000 nM; with `Cc1c(Oc2ccn3ncnc3c2)ccc(Nc2ncnc3cnc(N4C[C@@H](O)C(F)(F)C4)nc23)c1F` [Example 316], not below 5000 nM.
As for `Cc1c(Oc2ccn3ncnc3c2)ccc(Nc2ncnc3cnc(N(C)CC(F)F)nc23)c1F` [Example 317], the concentration for half-maximal inhibition (IC50) is not below 5000 nM.
On the same count and under the same terms, with `Cc1c(Oc2ccn3ncnc3c2)ccc(Nc2ncnc3cnc(N[C@H]4CNC[C@H]4F)nc23)c1F` [Example 318] the figure was not below 5000 nM; with `Cc1c(Oc2ccn3ncnc3c2)ccc(Nc2ncnc3cnc(N(C)[C@H]4CN(C)C[C@H]4F)nc23)c1F` [Example 320], not below 5000 nM.
Take `COC[C@H]1CCN1c1ncc2ncnc(Nc3ccc(Oc4ccn5ncnc5c4)c(Cl)c3)c2n1` [Example 321]: the IC50 is not below 5000 nM.

For the next assay, the target named is ErbB2 insYVMA (HER2-YVMA, SEQ ID NO: 2) (Homo sapiens, UniProt P04626, INS775YVMA/P1170A). In words: biochemical. As to conditions: ErbB2 insYVMA enzyme assay; read-out: Assay 1 IC50.
Take `Cc1c(Oc2ccn3ncnc3c2)ccc(Nc2ncnc3cnc(N4CC[C@](C)(O)C4)nc23)c1F` [Example 307]: the IC50 came out at 28.3 nM.
On the same count and under the same terms, the same measure for `Cc1c(Oc2ccn3ncnc3c2)ccc(Nc2ncnc3cnc(N4CC[C@@](C)(O)C4)nc23)c1F` [Example 308]: 15.1 nM; for `Cc1c(Oc2ccn3ncnc3c2)ccc(Nc2ncnc3cnc(N4CC[C@H]4C(C)(C)O)nc23)c1F` [Example 309]: 184 nM; for `Cc1c(Oc2ccn3ncnc3c2)ccc(Nc2ncnc3cnc(N4CC[C@H](O)C4)nc23)c1F` [Example 311]: 75.3 nM.
For the molecule `Cc1c(Oc2ccn3ncnc3c2)ccc(Nc2ncnc3cnc(N4CC[C@@H](O)C4)nc23)c1F` [Example 312], the IC50 was 38.9 nM.
Take `Cc1c(Oc2ccn3ncnc3c2)ccc(Nc2ncnc3cnc(N(C)CC4(O)CC4)nc23)c1F` [Example 314]: the half-inhibitory concentration (IC50) amounted to 29.8 nM.
Still for that read-out and setting: with `Cc1c(Oc2ccn3ncnc3c2)ccc(Nc2ncnc3cnc(N(C)CC4(O)CCC4)nc23)c1F` [Example 315] the figure was 39.3 nM.
Still for that read-out and setting: with `Cc1c(Oc2ccn3ncnc3c2)ccc(Nc2ncnc3cnc(N4C[C@@H](O)C(F)(F)C4)nc23)c1F` [Example 316] the figure was 52.2 nM.
Regarding `Cc1c(Oc2ccn3ncnc3c2)ccc(Nc2ncnc3cnc(N(C)CC(F)F)nc23)c1F` [Example 317], the IC50 is 18.1 nM.
Regarding `Cc1c(Oc2ccn3ncnc3c2)ccc(Nc2ncnc3cnc(N[C@H]4CNC[C@H]4F)nc23)c1F` [Example 318], the IC50 stood at 125 nM.
Still for that read-out and setting: the same measure for `Cc1c(Oc2ccn3ncnc3c2)ccc(Nc2ncnc3cnc(N(C)[C@H]4CN(C)C[C@H]4F)nc23)c1F` [Example 320]: 12.7 nM; for `COC[C@H]1CCN1c1ncc2ncnc(Nc3ccc(Oc4ccn5ncnc5c4)c(Cl)c3)c2n1` [Example 321]: 12.9 nM.
